Test results from ChEMBL document CHEMBL1132821, “2,4,5-Trisubstituted imidazoles: novel nontoxic modulators of P-glycoprotein mediated multidrug resistance. Part 1” (Bioorg Med Chem Lett, 2000).

Assays:
[1] = target: ATP-dependent translocase ABCB1 (Homo sapiens, UniProt P08183); test: Evaluated for inhibition of growth of CEM/VLB1000 cell line using multidrug resistance (MDR) potentiation assay
NCI/ADR-RES [2] = test: Compound (1 uM) was evaluated for the inhibition of cell growth in MCF-7/ADR* cell line (over expresses Pgp and is for Doxorubicin resistant) in the presence of vinblastine; assay type: functional; conditions: Homo sapiens, read-out: ED50 (the source's name)
NCI/ADR-RES [3] = test: Compound (1 uM) was evaluated for the inhibition of cell growth in MCF-7/ADR* cell line (over expresses Pgp and is for Doxorubicin resistant) in the presence of Taxol; assay type: functional; conditions: Homo sapiens, read-out: ED50 (the source's name)
MES-SA/Dx5 [4] = test: Compound (1 uM) was evaluated for the inhibition of cell growth in MES-SA/DX5** cell line (over expresses Pgp and is for Doxorubicin resistant) in the presence of doxorubicin; assay type: functional; conditions: Homo sapiens, read-out: ED50 (the source's name)
MES-SA/Dx5 [5] = test: Compound (1 uM) was evaluated for the inhibition of cell growth in MES-SA/DX5** cell line (over expresses Pgp and is for Doxorubicin resistant) in the presence of taxol; assay type: functional; conditions: Homo sapiens, read-out: ED50 (the source's name)
NCI/ADR-RES [6] = test: Compound (1 uM) was evaluated for the inhibition of cell growth in MCF-7/ADR cell line (over expresses Pgp and is for Doxorubicin resistant) in the presence of Taxol; assay type: functional; conditions: Homo sapiens, read-out: ED50 (the source's name)
NCI/ADR-RES [7] = test: Compound (1 uM) was evaluated for the inhibition of cell growth in MCF-7/ADR cell line (over expresses Pgp and is for Doxorubicin resistant) in the presence of vinblastine; assay type: functional; conditions: Homo sapiens, read-out: ED50 (the source's name)
MES-SA/Dx5 [8] = test: Compound (1 uM) was evaluated for the inhibition of cell growth in MES-SA/DX5 cell line (over expresses Pgp and is Doxorubicin resistant) in the presence of doxorubicin; assay type: functional; conditions: Homo sapiens, read-out: ED50 (the source's name)
MES-SA/Dx5 [9] = test: Compound (1 uM) was evaluated for the inhibition of cell growth in MES-SA/DX5 cell line (over expresses Pgp and is for Doxorubicin resistant) in the presence of taxol; assay type: functional; conditions: Homo sapiens, read-out: ED50 (the source's name)

Sequence of ATP-dependent translocase ABCB1 (P08183 whole entry): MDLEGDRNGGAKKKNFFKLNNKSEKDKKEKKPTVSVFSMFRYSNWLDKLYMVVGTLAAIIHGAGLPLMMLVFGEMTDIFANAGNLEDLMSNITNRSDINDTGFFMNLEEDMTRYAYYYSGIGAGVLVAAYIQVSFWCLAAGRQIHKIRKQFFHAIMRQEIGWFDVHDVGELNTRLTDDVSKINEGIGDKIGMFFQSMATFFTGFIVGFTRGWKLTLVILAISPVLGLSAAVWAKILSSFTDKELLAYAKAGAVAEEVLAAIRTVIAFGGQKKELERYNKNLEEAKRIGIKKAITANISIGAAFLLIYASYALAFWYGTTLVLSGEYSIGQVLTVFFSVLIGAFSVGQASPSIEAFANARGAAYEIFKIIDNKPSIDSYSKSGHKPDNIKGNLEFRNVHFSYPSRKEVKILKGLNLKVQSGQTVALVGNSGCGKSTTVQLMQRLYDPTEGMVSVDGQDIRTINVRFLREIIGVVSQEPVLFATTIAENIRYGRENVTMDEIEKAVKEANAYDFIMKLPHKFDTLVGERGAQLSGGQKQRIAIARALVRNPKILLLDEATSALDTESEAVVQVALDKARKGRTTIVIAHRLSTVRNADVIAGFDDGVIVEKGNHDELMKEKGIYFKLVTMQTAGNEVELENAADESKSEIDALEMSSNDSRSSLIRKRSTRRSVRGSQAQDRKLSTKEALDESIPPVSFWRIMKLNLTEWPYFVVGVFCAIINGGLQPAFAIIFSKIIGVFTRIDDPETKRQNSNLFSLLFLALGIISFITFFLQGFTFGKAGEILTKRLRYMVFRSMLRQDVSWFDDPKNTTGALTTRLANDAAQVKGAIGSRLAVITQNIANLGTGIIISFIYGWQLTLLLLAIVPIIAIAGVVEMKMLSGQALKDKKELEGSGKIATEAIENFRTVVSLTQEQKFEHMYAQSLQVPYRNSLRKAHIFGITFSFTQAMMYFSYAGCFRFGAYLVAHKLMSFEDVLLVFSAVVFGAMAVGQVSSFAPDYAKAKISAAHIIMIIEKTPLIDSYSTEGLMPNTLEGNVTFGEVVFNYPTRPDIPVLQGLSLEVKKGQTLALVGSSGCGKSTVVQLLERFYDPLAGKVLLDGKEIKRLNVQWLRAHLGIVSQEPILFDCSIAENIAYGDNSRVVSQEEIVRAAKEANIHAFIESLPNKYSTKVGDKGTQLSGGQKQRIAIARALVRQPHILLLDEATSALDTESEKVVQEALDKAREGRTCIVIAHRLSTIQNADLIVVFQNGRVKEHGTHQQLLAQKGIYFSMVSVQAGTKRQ

Row | Structure (SMILES) | GI50 ([1]; read-out: ED50) [nM] | also measured
1 | COCCCc1ccc(-c2nc(-c3ccc(N(C)C)cc3)c(-c3ccc(N(C)C)cc3)[nH]2)cc1 | 300 | 
2 | CN(C)c1ccc(-c2nc(-c3ccc(/C=C/C(=O)O)cc3)n(CCc3ccccc3)c2-c2ccc(N(C)C)cc2)cc1 | 20000 | 
3 | CN(C)c1ccc(-c2nc(-c3ccc(/C=C/COc4ccccc4)cc3)[nH]c2-c2ccc(N(C)C)cc2)cc1 | 450 | 
4 | CN(C)c1ccc(-c2nc(-c3ccc(O)cc3)n(CCc3ccccc3)c2-c2ccc(N(C)C)cc2)cc1 | 1000 | 
5 | CN(C)c1ccc(-c2nc(-c3ccc(C(=O)O)cc3)n(CCc3ccccc3)c2-c2ccc(N(C)C)cc2)cc1 | 10000 | 
6 | CCN(CC)C(=O)OC/C=C/c1ccc(-c2nc(-c3ccc(N(C)C)cc3)c(-c3ccc(N(C)C)cc3)[nH]2)cc1 |  | GI50 [1]: 880 nM
7 | COc1ccc(CCN(C)CCCC(C#N)(c2ccc(OC)c(OC)c2)C(C)C)cc1OC (stereo unspecified) |  | EC50 (NCI/ADR-RES [2]): 0.251 µg/mL; EC50 (NCI/ADR-RES [3]): 2.5 µg/mL; EC50 (MES-SA/Dx5 [4]): 3 µg/mL; EC50 (MES-SA/Dx5 [5]): 2.5 µg/mL
8 | CCCCC(=O)OC/C=C/c1ccc(-c2nc(-c3ccc(N(C)C)cc3)c(-c3ccc(N(C)C)cc3)[nH]2)cc1 | 480 | 
9 | COC(=O)C1CC1c1ccc(-c2nc(-c3ccc(N(C)C)cc3)c(-c3ccc(N(C)C)cc3)[nH]2)cc1 (stereo unspecified) | 310 | 
10 | CN(C)c1ccc(-c2nc(-c3ccc(/C=C/COCc4ccccc4)cc3)[nH]c2-c2ccc(N(C)C)cc2)cc1 | 300 | 
11 | COCCCCc1ccc(-c2nc(-c3ccc(N(C)C)cc3)c(-c3ccc(N(C)C)cc3)[nH]2)cc1 | 1100 | 
12 | CCCCOC/C=C/c1ccc(-c2nc(-c3ccc(N(C)C)cc3)c(-c3ccc(N(C)C)cc3)[nH]2)cc1 |  | GI50 [1]: 110 nM
13 | CC(C)OC(=O)/C=C/c1ccc(-c2nc(-c3ccc(N(C)C)cc3)c(-c3ccc(N(C)C)cc3)[nH]2)cc1 |  | EC50 (NCI/ADR-RES [2]): 0.028 µg/mL; EC50 (NCI/ADR-RES [3]): 0.15 µg/mL; EC50 (MES-SA/Dx5 [4]): 0.34 µg/mL; EC50 (MES-SA/Dx5 [5]): 0.13 µg/mL
14 | CCCCCCn1c(-c2ccc(C(=O)OC)cc2)nc(-c2ccc(N(C)C)cc2)c1-c1ccc(N(C)C)cc1 |  | GI50 [1]: 6000 nM
15 | CCCCCCn1c(-c2ccc(C(=O)O)cc2)nc(-c2ccc(N(C)C)cc2)c1-c1ccc(N(C)C)cc1 | 2000 | 

Further lines, with some results ahead:

Row | GI50 ([1]; read-out: ED50) [nM] | Structure (SMILES) | also measured
16 | 600 | CN(C)c1ccc(-c2nc(-c3ccc(/C=C/C#N)cc3)[nH]c2-c2ccc(N(C)C)cc2)cc1 | 
17 | 60000 | CN(C)c1ccc(-c2nc(-c3ccc(C(=O)O)cc3)[nH]c2-c2ccc(N(C)C)cc2)cc1 | 
18 | 1300 | CN(C)C/C=C/c1ccc(-c2nc(-c3ccc(N(C)C)cc3)c(-c3ccc(N(C)C)cc3)[nH]2)cc1 | 
19 | 10000 | CN(C)c1ccc(-c2nc(-c3ccc(/C=C/C(=O)O)cc3)[nH]c2-c2ccc(N(C)C)cc2)cc1 | 
20 | 300 | COC(=O)/C=C/c1ccc(-c2nc(-c3ccc(N(C)C)cc3)c(-c3ccc(N(C)C)cc3)[nH]2)cc1 | 
21 | 90 | COCCOC/C=C/c1ccc(-c2nc(-c3ccc(N(C)C)cc3)c(-c3ccc(N(C)C)cc3)[nH]2)cc1 | 
22 | 130 | COC/C=C/c1ccc(-c2nc(-c3ccc(N(C)C)cc3)c(-c3ccc(N(C)C)cc3)[nH]2)cc1 | 
23 | 1000 | COC(=O)CCc1ccc(-c2nc(-c3ccc(N(C)C)cc3)c(-c3ccc(N(C)C)cc3)[nH]2)cc1 | 
24 | 5000 | CN(C)c1ccc(-c2nc(-c3ccc(O)cc3)[nH]c2-c2ccc(N(C)C)cc2)cc1 | 
25 | 80 | CCOC/C=C/c1ccc(-c2nc(-c3ccc(N(C)C)cc3)c(-c3ccc(N(C)C)cc3)[nH]2)cc1 | EC50 (NCI/ADR-RES [6]): 0.036 µg/mL; EC50 (NCI/ADR-RES [7]): 0.01 µg/mL; EC50 (MES-SA/Dx5 [8]): 0.089 µg/mL; EC50 (MES-SA/Dx5 [9]): 0.024 µg/mL
26 | 600 | COC(=O)c1ccc(-c2nc(-c3ccc(N(C)C)cc3)c(-c3ccc(N(C)C)cc3)[nH]2)cc1 | 
